Test results taken from US20240252496A1, “SELECTIVE HYPOTHALAMUS PERMEABLE HDAC6 INHIBITORS FORTREATMENT OF LEPTIN-RESISTANT OBESITY” (The Children’s Medical Center Corporation, priority 2022, published 2024).
Several values for one entry are separate records, joined by “and”; a condition that tells them apart may be missing. Equal values may be shown once. Read-outs that look alike come from different tables or passages of the source.

Columns and labels:
[1] = test system: DIO mice; experiment: Acute leptin co-treatment in DIO mice (body weight, food intake 15 h); type: in vivo; details: for body weight, inhibitor alone: 3 days pretreatment i.p., ACY775 10, ricolinostat 25 mg/kg; for food intake, inhibitor alone: ACY775 10, ricolinostat 25 mg/kg i.p.; for body weight 15 h after leptin in inhibitor-pretreated mice / food intake 15 h after leptin in inhibitor-pretreated mice: leptin 1 mg/kg i.p., ACY775 10, ACY738 50, ricolinostat 25 mg/kg/day i.p.
Experimental: DIO mice were pretreated with ACY775 (10 mg/kg/day, i.p.) or vehicle for 3 days, which was followed by co-treatment with ACY775 (or vehicle) and leptin (1 mg/kg, i.p.) (or saline) (n=9 for each group), % change in body weight 15 h after leptin treatment, food intake (g) during the 15 h period after leptin treatment. The results in were reproduced in two independent experiments.
Diet induced obese (DIO) mice were pretreated with ACY775 (10 mg/kg/day, i.p.) or vehicle for 3 days, which was followed by co-treatment with ACY775 (or vehicle) and leptin (1 mg/kg, i.p.) (or saline) (n=9 for each group). Mice were evaluated for % change in body weight 15 h after leptin treatment, and food intake (g) during the 15 h period after leptin treatment.
DIO mice were pretreated with ricolinostat (25 mg/kg/day, i.p.) or vehicle for 3 days, which was followed by co-treatment with ricolinostat (or vehicle) and leptin (1 mg/kg, i.p.) (or saline) (n=32 for each group). Change in body weight 15 h after leptin treatment, and food intake (g) during the 15 h period after leptin treatment were determined. The results were reproduced in two independent experiments.

[2] = cited from earlier work; for brain/plasma ratio: in vivo
[3] = biological target: LepRb-HDAC6 interaction (Mus musculus (Mouse), UniProt Q9Z2V5); experiment: LepRb-flag / HDAC6-myc co-immunoprecipitation in HEK293 cells; type: cell-based; details: 200 nM for 1 h
Experimental: It was hypothesized that HDAC6 might interact with leptin receptor b (LepRb). To test this hypothesis, HEK293 cells were transfected with GFP or HDAC6-myc or LepRb-flag or LepRb-flag and HDAC6-myc expressing plasmids. Subsequently, cells were treated either with vehicle or HDAC6 inhibitor (ACY775) (200 nM for 1 h). Then Flag immunoprecipitation was performed to pull down LepRb and subsequently immunoblot these immune-precipitates with Myc and Flag antibodies.
HEK293 cells were transfected with GFP (as control) or HDAC6 or LepRb or LepRb and HDAC6 together. Subsequently cells were either treated with vehicle or HDAC6 inhibitor (ACY775) (200 nM for 1 h). Flag immunoprecipitation was used to pull down LepRb, followed by Myc and Flag immunoblotting.

[4] = test system: DIO mice; experiment: Single dose food intake in 24 h-fasted DIO mice; type: in vivo; details: ACY775 10, ACY738 50 mg/kg i.p.
Experimental: Food intake was analyzed hourly until 3:00 am. […] DEXA scans were performed in two different cohorts.

[5] = test system: DIO mice; experiment: Conditioned place preference (CPP) assay in DIO mice; type: in vivo; details: fed and fasting conditions, vs vehicle
Experimental: DIO mice were treated with vehicle or ACY775 (10 mg/kg, i.p., once a day) for 3 days. On the fourth day, 1 h after the beginning of the light cycle, the mice were administered vehicle or ACY775 (10 mg/kg, i.p.) and the conditioned place preference (CPP) assay under the ad libitum feeding condition was utilized. The CPP assay was performed 6 h later under the ad libitum feeding condition (n=10 mice for both the Vehicle- and ACY775-treated groups). CPP assay under a 20-h fasting condition was also performed. DIG mice were treated with vehicle or ACY775 (10 mg/kg, i.p.) once a day and fasted for 15 h after the third injection. On the fourth day, 1 h after the beginning of the light cycle, the mice were administered vehicle or ACY775 (10 mg/kg body weight, i.p.) and the CPP assay was performed 5 h after this injection under the fasting condition (n=10 mice for both the Vehicle- and ACY775-treated groups).
Measurements were made of the total distance that the mice traveled during the CPP test, the average velocity of movement during the assay, the total time the mice spent in the dark chamber during the test; the frequency with which the mice traveled to the dark chamber during the test; the total time the mice spent in the food-paired white chamber; the frequency with which the mice traveled to the food paired white chamber; the total time the mice spent in the food-containing zone within the food-paired side chamber; and the frequency with which the mice traveled to the food-containing zone within the food-paired side chamber during the test.

[6] = test system: DIO mice; experiment: Metabolic cages (CLAMS) in DIO mice; type: in vivo; details: for energy expenditure: 3 days, ACY775 10, ACY738 50 mg/kg i.p.
Experimental: Diet induced obese (DIO) mice were placed into metabolic cages and received ACY775 (10 mg/kg, i.p., n=7) or vehicle (n=8) once a day for 3 days. Energy expenditure, respiratory exchange ratios (RER; VCO2/VO2), ambulatory count (physical activity) from each group of mice were determined. Bar graphs represent average of two dark (8-20 and 32-44 hr) and two light cycles ([…]).
Comprehensive Lab Animal Monitoring System (CLAMS) was used to measure metabolic parameters such as energy expenditure (EE) and respiratory exchange ratio (RER) and physical activity levels in Vehicle- and ACY775-treated mice.

[7] = test system: WT lean mice; experiment: 3-week treatment of WT lean mice; type: in vivo; details: for lean mass, total fat mass, fat percentage / body weight: 3 weeks; for body weight: ACY775 10, ACY738 50 mg/kg i.p.; for liver morphology: end of treatment
Experimental: Daily food intake (g) during 3 weeks of treatment. Serum leptin (ng/ml) levels were measured after 3 weeks of treatment. Lean mass (g); fat mass (g) and fat percentage (%) after 3 weeks of treatment were measured by DEXA scan. GTT was measured after 1 week of treatment. AOC analysis for GTT was performed. Blood glucose (mg/dl) level was measured after 1 week of treatment. ITT was measured after 2 weeks of treatment. Serum insulin (ng/ml) levels were measured after 3 weeks of treatment.

[8] = test system: db/db mice; experiment: 3-week treatment of db/db mice; type: in vivo; details: for glucose tolerance (GTT): 1 week; for ITT: 2 weeks; for body weight heavier than initial body weight: end of 3 weeks, ACY775 10, ACY738 50 mg/kg i.p.
Experimental: Daily food intake (g), Serum leptin (ng/ml), lean mass (g), fat mass (g) and fat percentage (%) were measured after 3 weeks of treatment measured by DEXA scan. GTT was determined after 1 week of treatment. AOC analysis for GTT was performed and Blood glucose (mg/dl) levels were measured after 1 week of treatment. Blood glucose (mg/dl) levels and Serum insulin (ng/ml) levels were measured after 3 weeks of treatment. ITT was assessed after 2 weeks of treatment. H&E staining of the liver sections was conducted after 3 weeks of treatment.

[9] = test system: HDAC6 KO mice; experiment: 3-week treatment of DIO WT versus HDAC6 KO mice; type: in vivo; details: for body weight, HDAC6 KO vs WT DIO mice: 3 weeks i.p., ACY775 10, ACY738 50, Tubastatin A 25 mg/kg/day; for fat mass and fat %, HDAC6 KO vs WT / lean mass, HDAC6 KO vs WT: DEXA; for blood glucose, serum insulin and leptin levels, HDAC6 KO vs WT / food intake, HDAC6 KO vs WT DIO mice / glucose tolerance and insulin sensitivity (GTT, ITT), HDAC6 KO vs WT: mouse, in vivo

Sequence of LepRb-HDAC6 interaction (Q9Z2V5 whole entry): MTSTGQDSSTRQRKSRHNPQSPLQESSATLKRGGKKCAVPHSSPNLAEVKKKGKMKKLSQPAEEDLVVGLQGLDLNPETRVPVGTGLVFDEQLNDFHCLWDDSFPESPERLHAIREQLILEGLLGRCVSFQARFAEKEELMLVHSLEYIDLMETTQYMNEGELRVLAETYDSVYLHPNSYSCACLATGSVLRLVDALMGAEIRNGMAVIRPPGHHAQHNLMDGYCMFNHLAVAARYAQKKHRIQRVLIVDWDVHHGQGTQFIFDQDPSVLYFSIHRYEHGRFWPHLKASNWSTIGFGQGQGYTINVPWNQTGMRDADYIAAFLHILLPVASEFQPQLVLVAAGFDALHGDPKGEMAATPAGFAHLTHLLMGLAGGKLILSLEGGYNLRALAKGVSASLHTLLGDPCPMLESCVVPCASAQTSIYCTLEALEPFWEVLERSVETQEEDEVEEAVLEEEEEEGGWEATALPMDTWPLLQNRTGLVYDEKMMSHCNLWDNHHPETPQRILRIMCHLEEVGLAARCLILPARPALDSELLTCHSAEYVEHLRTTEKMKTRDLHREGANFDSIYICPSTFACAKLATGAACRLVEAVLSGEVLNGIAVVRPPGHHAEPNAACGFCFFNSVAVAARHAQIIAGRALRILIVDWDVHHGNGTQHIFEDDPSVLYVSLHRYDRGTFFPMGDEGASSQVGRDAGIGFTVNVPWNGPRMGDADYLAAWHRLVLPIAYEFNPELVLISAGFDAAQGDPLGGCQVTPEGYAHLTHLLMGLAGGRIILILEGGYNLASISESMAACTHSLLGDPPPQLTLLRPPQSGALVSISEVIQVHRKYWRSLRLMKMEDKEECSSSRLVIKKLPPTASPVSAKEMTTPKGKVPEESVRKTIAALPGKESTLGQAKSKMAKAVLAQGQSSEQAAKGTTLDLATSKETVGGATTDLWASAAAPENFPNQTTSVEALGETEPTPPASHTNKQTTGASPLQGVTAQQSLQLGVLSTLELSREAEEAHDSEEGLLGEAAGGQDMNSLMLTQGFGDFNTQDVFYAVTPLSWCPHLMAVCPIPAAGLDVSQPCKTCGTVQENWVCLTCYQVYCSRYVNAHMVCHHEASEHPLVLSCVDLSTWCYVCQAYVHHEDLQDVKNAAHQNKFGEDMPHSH

SMILES | body weight, inhibitor alone [1] | food intake, inhibitor alone [1] | body weight 15 h after leptin in inhibitor-pretreated mice [1] | food intake 15 h after leptin in inhibitor-pretreated mice [1] | brain/plasma ratio [2] | food intake after a single dose [4] | CPP: cumulative duration in dark side chambers [5] | CPP: time and frequency in food-containing white side chambers [5] | CPP: time and frequency in the food zone [5] | energy expenditure [6] | daily food intake [7] | insulin sensitivity (ITT) and circulating insulin levels [7] | lean mass, total fat mass, fat percentage [7] | body weight [7] | liver morphology [7] | hepatic steatosis [8] | plasma insulin levels [8] | glucose tolerance (GTT) [8] | ITT [8] | body weight heavier than initial body weight [8] | also measured
O=C(CCCCCCNC(=O)c1cnc(N(c2ccccc2)c2ccccc2)nc1)NO [Ricolinostat] | did not decrease the bodyweight | no effect on the food intake | did not reduce the body weight | no effect on the food intake | 0.01 and < 0.01 |  |  |  |  |  |  |  |  |  |  |  |  |  |  |  | brain/plasma ratio ([2]; listed as ricolinostat): 0.01; brain penetrance / BBB permeability ([2]; in words): poor BBB permeability
O=C(NO)c1cnc(NC2(c3cccc(F)c3)CCCCC2)nc1 [ACY775, 2-[[1-(3-fluorophenyl)cyclohexyl]amino]-N-hydroxy-5-pyrimidinecarboxamide] | significantly decreased the bodyweight | reduced the food intake | further reduction in bodyweight | further augmented the negative effect of leptin on food intake | 1.26 | significantly reduced/blocked the food intake | no significant differences in cumulative duration | significantly shorter time and had lower frequency of appearance in the food-containing white side chambers | significantly shorter time and displayed lower frequency of appearance in the food zone | higher in the both dark and light cycle | similar | no significant difference in insulin sensitivity and circulating insulin levels | did not detect any alterations | neither ACY775 nor ACY738 affected the body weight | similar | did not improve hepatic steatosis | did not show any significant alterations | no difference in glucose tolerance | no significant difference in blood glucose levels | 3.82%±0.99% | HDAC6 interaction with LepRb [3]: blocks this interaction; CPP: appearance frequency in dark side chambers [5]: similar; respiratory exchange ratio (RER) ([6]; dark and light cycles): significantly decreased; fasting blood glucose after the first week [8]: lower in ACY775-treated mice than vehicle-treated mice; food intake [8]: transitionally reduced by ACY775 treatment during the first 2 days; blood glucose lowering at the end of treatment period ([8]; 3 weeks): completely diminished; body weight, HDAC6 KO vs WT DIO mice [9]: highly significant decrease in the bodyweight of the WT DIO mice when compared to HDAC6 KO DIG mice; fat mass and fat %, HDAC6 KO vs WT [9]: significantly lower in the wt group; lean mass, HDAC6 KO vs WT [9]: not different; blood glucose, serum insulin and leptin levels, HDAC6 KO vs WT [9]: significantly higher in the ACY775-treated HDAC6 KO group; food intake, HDAC6 KO vs WT DIO mice [9]: blocked in the HDAC6 KO mice; glucose tolerance and insulin sensitivity (GTT, ITT), HDAC6 KO vs WT [9]: could not increase glucose tolerance and insulin sensitivity in the HDAC6 KO mice
O=C(NO)c1cnc(NC2(c3ccccc3)CC2)nc1 [ACY738] |  |  | significantly augmented the acute leptin-induced reduction in body weight and food intake | significantly augmented the acute leptin-induced reduction in body weight and food intake |  | significantly reduced/blocked the food intake | no significant differences in cumulative duration | spent similar time and frequency of appearance | significantly shorter time and displayed lower frequency of appearance in the food zone | higher energy expenditure in light cycle, though without significant difference in dark cycle | similar | no significant difference in insulin sensitivity and circulating insulin levels | did not detect any alterations | neither ACY775 nor ACY738 affected the body weight | similar | did not improve hepatic steatosis | did not show any significant alterations | no difference in glucose tolerance | no significant difference in blood glucose levels | 2.53%±0.97% | body weight, HDAC6 KO vs WT DIO mice [9]: slight decrease in the HDAC6KO mice; fat mass and fat %, HDAC6 KO vs WT [9]: significantly lower in the wt group; lean mass, HDAC6 KO vs WT [9]: not different; reduction of bodyweight of the wt mice ([9]; DIO wt mice, ACY738 50 mg/kg i.p.): around 20%; blood glucose, serum insulin and leptin levels, HDAC6 KO vs WT [9]: significantly higher in the ACY738-treated HDAC6 KO group; food intake, HDAC6 KO vs WT DIO mice [9]: significantly higher in the HDAC6 KO group; glucose tolerance and insulin sensitivity (GTT, ITT), HDAC6 KO vs WT [9]: did not improve glucose tolerance and increase insulin sensitivity in the HDAC6 KO mice
